{"source": "patent US20090239944A1", "about": "“Novel Use of Organic Compounds” (priority 2005, published 2009)", "key": {"C3H10T1/2 cells [1]": {"system": "C3H10T1/2 cells", "assay": "Differentiation of adipocytes (oil Red O staining, absorbance at 540 nm)", "format": "cell-based", "settings": "for Mean OD ± SEM (oil Red O, 540 nm): 10-day treatment; for Differentiation of the cells into adipocytes (result in words): co-treatment with insulin, compared with insulin alone", "procedure": "C3H10T1/2 cells were grown to confluence as described in Example 1, then treated for 10 days with insulin alone (negative control) or with a mixture of insulin and the compound of the formula I-1 at different concentrations (see Table 2), with re-feeding with fresh medium and compounds every 48-h. After 10-days of treatment, the cells were stained with oil Red O as follows: cells were washed 2× in PBS and fixed in 10% formalin at room temperature for 1 h. After removal of formalin, 200 μl of oil Red O staining solution (3:2 mixture of 0.5% w/v oil Red O stock solution and water) was applied to each well. The cells were incubated for 20 min at room temperature, washed twice in 2×PBS and incubated for 10 min with 300 μl of isopropanol/well for oil Red O extraction. Quantification of oil Red O was determined by measuring absorbance at 540 nm (mean OD). […] C3H10T1/2 cells were grown and treated as described in Example 4 with the exception that the compound of the formula I-2 was used instead of the compound of the formula I-1. The measurement of adipocyte differentiation using the oil Red O assay was performed as described in Example 4. […] C3H10T1/2 cells were grown and treated as described in Example 4 with the exception that the compound of the formula I-3 was used instead of the compound of the formula I-1. The measurement of adipocyte differentiation using the oil Red O assay was performed as described in Example 4."}, "C3H10T1/2 cells [2]": {"system": "C3H10T1/2 cells", "assay": "Glucose uptake of adipocytes (radioactive 2-deoxyglucose, basal, absence of insulin)", "format": "cell-based", "settings": "48-h treatment; for Basal glucose uptake: absence of insulin, ± SEM, DMSO control = 100%; for Basal glucose uptake (result in words): different concentrations", "procedure": "C3H10T1/2 cells (ATCC CCL-226) were grown for 5 days to confluence in DMEM supplemented with 10% FBS medium and induced with a mixture of insulin, dexamethasone and 3-isobutyl-1-methylxanthine to differentiate into adipocytes. Nine days after the beginning of induction, cells were treated for 48-h with the compound of the formula I-1 at different concentrations as shown in Table 1. Glucose uptake was determined using radioactive 2-deoxyglucose (10 μM 2-DG in HBS+0.5 μCi/ml of 3-[H]-2-DG), measuring glucose uptake in the absence of insulin. Basal glucose uptake was increased by 48-h treatment with the compound of the formula I-1 in a dose-dependent manner (Table 1). Growing, induction and treatment of C3H10T1/2 cells were exactly as described in Example 1, with the exception that the compound of the formula I-3 at different concentrations was used instead of the compound of the formula I-1. […] Control: C3H10T1/2 cells treated for 48 h with DMSO at the same concentration as compound-treated cells and set at 100%"}, "C57BLKS/J db/db mice": {"system": "C57BLKS/J db/db mice", "assay": "Glucose tolerance, 14-day study in db/db mice (blood glucose, OGTT, FFA)", "format": "in vivo", "procedure": "The efficacy of the compound of the formula I-1 on glucose tolerance was tested in a 14-day study in C57BLKS/J db/db mice (n=10/group), a model of late type 2 diabetes mellitus with severe hyperglycemia.\nMale db/db mice were obtained from Jackson Laboratory (Bar Harbor, Me., USA). Adult mice aged 8 weeks were used in the experiment. Mice were housed individually in plastic cages with bedding and allowed free access to standard rodent food and tap water. The animal rooms were controlled for temperature (24° C.), humidity (55%), and light (12-h light-dark cycle). The animals were randomized in two groups and the compound of the formula I-1 was administered orally to one of the groups for 14 days at a dose of 200 mg/kg BW/day. After 14 days of treatment the concentration of glucose was determined in blood from fed animals, i.e., animals which were not restricted from food. After a period of 10 days of treatment an oral glucose tolerance test (OGTT) was performed. For the OGTT mice were fasted overnight and then a 1-g glucose/kg BW solution was orally administered. Blood samples were taken before and 15, 30, 45, 60, 90, 120, 150, 180 min after the glucose challenge for determination of blood glucose levels and then the area under the curve (AUC) was determined. Blood glucose was measured by a glucose analyzer (Glucotrend Premium, Roche Diagnostics, Rotkreuz, Switzerland). The glucose and the free fatty acid (FFA) levels of fed animals (see above) were lowered after 14 days of treatment with the compound of the formula I-1. After 10 days of treatment with the compound of the formula I-1 the glucose levels of fasted animals, i.e., animals with an overnight fasting (see above) were decreased as compared to the untreated control group."}, "[3]": {"settings": "compound 1 × 10^−5 M + insulin 1 × 10^−7 M"}, "[4]": {"settings": "after 14 days of treatment, 200 mg/kg BW/day orally"}}, "data": [{"compound": "Insulin: insulin alone, negative control of the adipocyte differentiation test", "values": [{"measurement": "Mean OD ± SEM (oil Red O, 540 nm)", "setting": "C3H10T1/2 cells [1]; insulin 1 × 10^−7 M alone (negative control)", "value": "0.28 ± 0.03"}]}, {"compound": "COc1ccc(C(=O)/C=C/c2cccc(OC(=O)/C=C/c3ccccc3)c2)cc1", "note": "[I-2]", "values": [{"measurement": "Differentiation of the cells into adipocytes (result in words)", "setting": "C3H10T1/2 cells [1]", "value": "higher differentiation of the cells into adipocytes than insulin alone"}, {"measurement": "Mean OD ± SEM (oil Red O, 540 nm)", "setting": "C3H10T1/2 cells [1]; [3]", "value": "0.45 ± 0.037"}]}, {"compound": "CC1(COc2ccc(CC3SC(=O)NC3=O)cc2)CCCCC1", "note": "(centres unmarked) [Ciglitazone, ciglitazone, reference compound]", "values": [{"measurement": "Basal glucose uptake", "setting": "C3H10T1/2 cells [2]; 5 × 10^−5 M", "value": "496.178 ± 61.86 % of control"}]}, {"compound": "COc1ccc(/C=C/C(=O)c2ccc(OC(=O)c3ccccc3)cc2)cc1OC", "note": "[I-3]", "values": [{"measurement": "Basal glucose uptake", "setting": "C3H10T1/2 cells [2]; 1 × 10^−5 M", "value": "133.28 ± 23.4 % of control"}, {"measurement": "Basal glucose uptake", "setting": "C3H10T1/2 cells [2]; 1 × 10^−6 M", "value": "105.37 ± 2.21 % of control"}, {"measurement": "Basal glucose uptake", "setting": "C3H10T1/2 cells [2]; 2 × 10^−4 M", "value": "142.84 ± 18.05 % of control"}, {"measurement": "Basal glucose uptake", "setting": "C3H10T1/2 cells [2]; 5 × 10^−5 M", "value": "116.17 ± 15.96 % of control"}, {"measurement": "Basal glucose uptake (result in words)", "setting": "C3H10T1/2 cells [2]", "value": "increase"}, {"measurement": "Differentiation of the cells into adipocytes (result in words)", "setting": "C3H10T1/2 cells [1]", "value": "higher differentiation of the cells into adipocytes than insulin alone"}, {"measurement": "Mean OD ± SEM (oil Red O, 540 nm)", "setting": "C3H10T1/2 cells [1]; [3]", "value": "0.53 ± 0.025"}, {"measurement": "Mean OD ± SEM (oil Red O, 540 nm)", "setting": "C3H10T1/2 cells [1]; compound 2 × 10^−4 M + insulin 1 × 10^−7 M", "value": "0.34 ± 0.087"}, {"measurement": "Mean OD ± SEM (oil Red O, 540 nm)", "setting": "C3H10T1/2 cells [1]; compound 5 × 10^−5 M + insulin 1 × 10^−7 M", "value": "0.53 ± 0.017"}]}, {"compound": "COc1ccc(C(=O)/C=C/c2c(CCN(C)C(C)=O)cc3c(c2OC)OCO3)cc1", "note": "[I-1]", "values": [{"measurement": "Basal glucose uptake", "setting": "C3H10T1/2 cells [2]; 1 × 10^−5 M", "value": "94.58 ± 0.95 % of control"}, {"measurement": "Basal glucose uptake", "setting": "C3H10T1/2 cells [2]; 1 × 10^−6 M", "value": "97.6 ± 22.9 % of control"}, {"measurement": "Basal glucose uptake", "setting": "C3H10T1/2 cells [2]; 2.4 × 10^−5 M", "value": "128.6 ± 0.89 % of control"}, {"measurement": "Basal glucose uptake", "setting": "C3H10T1/2 cells [2]; 5 × 10^−4 M", "value": "194.058 ± 0.05 % of control"}, {"measurement": "Basal glucose uptake (result in words)", "setting": "C3H10T1/2 cells [2]", "value": "increased"}, {"measurement": "glucose AUC of an OGTT (result in words)", "setting": "C57BLKS/J db/db mice; 1 g glucose/kg body weight, day 10", "value": "significantly reduced"}, {"measurement": "Glucose AUC", "setting": "C57BLKS/J db/db mice; OGTT (1 g glucose/kg BW) on day 10, 0-180 min, 200 mg/kg BW/day orally, control 69673", "value": 54295}, {"measurement": "glucose levels of fasted animals (result in words)", "setting": "C57BLKS/J db/db mice; after 10 days of treatment, compared to the untreated control group", "value": "decreased"}, {"measurement": "free fatty acid (FFA) levels of fed animals (result in words)", "setting": "C57BLKS/J db/db mice; [4]", "value": "lowered"}, {"measurement": "glucose levels of fed animals (result in words)", "setting": "C57BLKS/J db/db mice; [4]", "value": "lowered"}, {"measurement": "blood glucose levels during the OGTT (result in words)", "setting": "C57BLKS/J db/db mice; compared with the control group, 15-180 min after glucose challenge", "value": "lower at all time points"}, {"measurement": "Blood Glucose Fasted", "setting": "C57BLKS/J db/db mice; db/db mice, 200 mg/kg BW/day orally, after 10 days, overnight fasting, control 175", "value": 135, "unit": "mg/dL"}, {"measurement": "FFA", "setting": "C57BLKS/J db/db mice; db/db mice, 200 mg/kg BW/day orally, after 14 days, fed animals, control 15.95", "value": 12.38, "unit": "mg/dL"}, {"measurement": "Blood Glucose Fed", "setting": "C57BLKS/J db/db mice; db/db mice, 200 mg/kg BW/day orally, after 14 days, fed animals, control 859", "value": 771, "unit": "mg/dL"}, {"measurement": "Differentiation of the cells into adipocytes (result in words)", "setting": "C3H10T1/2 cells [1]", "value": "higher differentiation of the cells into adipocytes than insulin alone"}, {"measurement": "Mean OD ± SEM (oil Red O, 540 nm)", "setting": "C3H10T1/2 cells [1]; [3]", "value": "0.69 ± 0.019"}]}]}
